Values of other authors as cited in patent US20240252671A1, “NEODEGRADER-ANTI-CD33 ANTIBODY CONJUGATES” (priority 2021, published 2024).

Experiments:
AML-193 = settings: stated as known; cited from earlier work
Kasumi-6 = settings: stated as known; cited from earlier work

**Q.** Which “sensitivity of cell line to Mylotarg” value (AML-193) does the source give for “Mylotarg: a CD33-targeting ADC clinically approved for the treatment of AML” here?
**A.** insensitive

**Q.** And the “sensitivity of cell line to Mylotarg” value (Kasumi-6)?
**A.** insensitive
